Assay results as given in ChEMBL document CHEMBL2074288 (Eur J Pharmacol, 2004).
pKi: −log10 of the molar value.

Key:
[1] = molecular target: T1, Organic anion transporter 3 (Homo sapiens, UniProt Q8TCC7); experiment: TP_TRANSPORTER: inhibition of E1S uptake in OAT3 expressing oocytes
T1 sequence (Q8TCC7 whole entry): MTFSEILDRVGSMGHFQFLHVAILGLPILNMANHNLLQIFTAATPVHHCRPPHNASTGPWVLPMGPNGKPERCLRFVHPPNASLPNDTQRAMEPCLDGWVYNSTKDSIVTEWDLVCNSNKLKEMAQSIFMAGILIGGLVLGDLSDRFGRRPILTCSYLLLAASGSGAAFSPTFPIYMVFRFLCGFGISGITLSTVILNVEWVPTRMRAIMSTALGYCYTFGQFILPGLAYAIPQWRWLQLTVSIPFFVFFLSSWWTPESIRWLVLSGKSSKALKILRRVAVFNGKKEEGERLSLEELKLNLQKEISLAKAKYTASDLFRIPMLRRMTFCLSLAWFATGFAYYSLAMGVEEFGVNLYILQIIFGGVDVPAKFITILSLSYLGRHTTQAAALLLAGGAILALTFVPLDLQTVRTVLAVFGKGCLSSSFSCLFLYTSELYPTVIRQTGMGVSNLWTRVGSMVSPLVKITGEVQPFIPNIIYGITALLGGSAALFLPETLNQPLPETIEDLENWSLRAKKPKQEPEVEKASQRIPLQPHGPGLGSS

[2] = molecular target: T2, Solute carrier family 22 member 2 (Homo sapiens, UniProt O15244); experiment: TP_TRANSPORTER: inhibition of TEA uptake in OCT2 expressing oocytes
T2 sequence (O15244 whole entry): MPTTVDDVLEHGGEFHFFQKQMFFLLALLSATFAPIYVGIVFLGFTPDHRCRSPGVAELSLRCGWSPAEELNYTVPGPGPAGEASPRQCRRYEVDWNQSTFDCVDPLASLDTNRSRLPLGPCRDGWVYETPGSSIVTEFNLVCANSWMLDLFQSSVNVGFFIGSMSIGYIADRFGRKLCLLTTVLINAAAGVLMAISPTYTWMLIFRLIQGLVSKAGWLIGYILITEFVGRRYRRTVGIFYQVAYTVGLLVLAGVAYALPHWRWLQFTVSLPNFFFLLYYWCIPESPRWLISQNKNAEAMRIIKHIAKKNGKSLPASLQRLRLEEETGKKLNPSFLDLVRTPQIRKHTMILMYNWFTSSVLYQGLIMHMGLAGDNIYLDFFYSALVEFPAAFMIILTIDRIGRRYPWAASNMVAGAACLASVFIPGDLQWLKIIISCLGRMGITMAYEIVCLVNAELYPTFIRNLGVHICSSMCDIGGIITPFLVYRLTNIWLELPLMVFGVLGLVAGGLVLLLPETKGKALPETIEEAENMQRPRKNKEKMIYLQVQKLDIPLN

SMILES | pKi [1] | pKi [2]
CN/C(=N/CCSCc1nc[nH]c1C)NC#N [CIMETIDINE] | 4.28 | 4.24
NC(N)=Nc1nc(CSCCC(N)=NS(N)(=O)=O)cs1 [FAMOTIDINE] | 3.52 | 2.74
